Test results as given in patent US6403531B1, “Herbicidal synergistic composition and method of weed control” (Syngenta Crop Protection, inc., priority 1997, dated 2002).

How the values were obtained:
Format in all cases: in vivo
[1] = tested on: Cassia sp.; assay: Post-emergence herbicidal action
From the text: (§1) A synergistic effect exists whenever the action of the active ingredient combination I and II, III, IV, V, VI, VII, VIII, IX or X is greater than the sum of the actions of the active ingredients applied individually. The herbicidal action to be expected, We, for a given combination of two herbicides can be calculated as follows (see COLBY, S. R. “Calculating synergistic and antagonistic response of herbicide combinations”. Weeds 15, pages 20-22; 1967):
(§2) We=expected herbicidal action (% herbicidal action in comparison with untreated control) after treatment with the compounds of formula I and II, III, IV, V, VI, VII, VIII, IX or X at a rate of application of p+q kg of active ingredient per hectare.
(§3) The test plants are raised in plastics pots under greenhouse conditions as far as the 2- to 3-leaf stage. A standard soil is used as the cultivation substrate. At the 2- to 3-leaf stage, the herbicides are applied individually and as mixtures to the test plants. The test compounds are applied in the form of an aqueous suspension in 500 l of water/ha. The rates of application depend on the optimum concentrations determined under field conditions and greenhouse conditions. Evaluation of the tests is made after 11 and 22 days (DAA=day after application) in % action. 100% denotes that the plants have died, 0% denotes no phytotoxic action.

[2] = tested on: Xanthium; assay: Pre-emergence herbicidal action
From the text: as §1, §2
(§4) Monocotyledonous and dicotyledonous weeds and cultivated plants are sown in standard soil in plastics pots. Immediately after sowing, the test compounds are applied as an aqueous suspension (500 l of water/ha). The rates of application depend on the optimum concentrations determined under field conditions and greenhouse conditions. Evaluation of the tests is made after 15 and 27 days (DAA=day after application) in % action. 100% denotes that the plants have died, 0% denotes no phytotoxic action.

[3] = tested on: Abutilon; assay: Pre-emergence herbicidal action
From the text: as §1, §2, §4

[4] = tested on: Sesbania; assay: Pre-emergence herbicidal action
From the text: as §1, §2, §4

[5] = tested on: cotton; assay: Pre-emergence herbicidal action (cultivated plant)
From the text: as §1, §2, §4

[6] = tested on: Cyperus; assay: Herbicidal action
[7] = tested on: Solanum nigrum; assay: Herbicidal action; settings: post-emergence
[8] = tested on: Sorghum hal.; assay: Herbicidal action; settings: titled pre-emergence (under Example B2)
[9] = tested on: Abutilon; assay: Post-emergence herbicidal action
From the text: as §1, §2, §3

[10] = tested on: Digitaria; assay: Post-emergence herbicidal action
From the text: as §1, §2, §3

[11] = tested on: Sesbania; assay: Post-emergence herbicidal action
From the text: as §1, §2, §3

[12] = tested on: Solanum; assay: Post-emergence herbicidal action
From the text: as §1, §2, §3

[13] = tested on: Sorghum; assay: Post-emergence herbicidal action
From the text: as §1, §2, §3

For `COc1cc(OC)nc(Sc2cccc(Cl)c2C(=O)[O-])n1.[Na+]` [pyrithiobac, pyrithiobac-sodium], the “herbicidal action on Cassia sp.” value ([1]; DAA 11, 25 g/ha) was 50%, the “herbicidal action on Cassia sp.” value ([1]; DAA 11, 50 g/ha) was 80% and the “herbicidal action on Cassia sp.” value ([1]; DAA 11, 100 g/ha) was 70%.
With `CC1(C)CON(Cc2ccccc2Cl)C1=O` [clomazone] the “herbicidal action on Xanthium” value ([2]; DAA 15, 125 g/ha) was 10%, the “herbicidal action on Xanthium” value ([2]; DAA 15, 250 g/ha) was 25% and the “herbicidal action on Xanthium” value ([2]; DAA 15, 500 g/ha) was 60%.
For `COc1cc(OC)nc(NC(=O)NOS(=O)c2ncccc2OCC(F)(F)F)n1.[Na+]` (centres unmarked) [compound of formula I], the “herbicidal action on Abutilon” value ([3]; DAA 27, 3.75 g/ha) was 50%, the “herbicidal action on Sesbania” value ([4]; DAA 15, 3.75 g/ha) was 35% and the “herbicidal action on Sesbania” value ([4]; DAA 27, 3.75 g/ha) was 25%. For the same compound, the “herbicidal action on Xanthium” value ([2]; DAA 15, 3.75 g/ha) was 85%, the “herbicidal action on Xanthium” value ([2]; DAA 15, 7.5 g/ha) was 90% and the “herbicidal action on Xanthium” value ([2]; DAA 27, 3.75 g/ha) was 96%. The “herbicidal action on cotton (damage)” value ([5]; DAA 27, 3.75 g/ha) was 10%, the “herbicidal action on Cyperus” value ([6]; post-emergence, DAA 22, 1.88 g/ha) was 70% and the “herbicidal action on Cyperus” value ([6]; titled pre-emergence (under Example B2), DAA 11, 3.75 g/ha) was 50%. For the same compound, the “herbicidal action on Solanum nigrum” value ([7]; DAA 22, 1.88 g/ha) was 0%, the “herbicidal action on Solanum nigrum” value ([7]; DAA 22, 3.75 g/ha) was 0% and the “herbicidal action on Solanum nigrum” value ([7]; DAA 22, 7.5 g/ha) was 15%. The “herbicidal action on Sorghum hal.” value ([8]; DAA 22, 1.88 g/ha) was 75%, the “herbicidal action on Abutilon” value ([9]; DAA 22, 1.88 g/ha) was 55% and the “herbicidal action on Cassia sp.” value ([1]; DAA 11, 1.88 g/ha) was 70%. The “herbicidal action on Digitaria” value ([10]; DAA 22, 1.88 g/ha) was 15%, the “herbicidal action on Sesbania” value ([11]; DAA 11, 1.88 g/ha) was 70% and the “herbicidal action on Solanum” value ([12]; DAA 11, 7.5 g/ha) was 20%. The “herbicidal action on Sorghum” value ([13]; DAA 22, 1.88 g/ha) was 75%.
For `CCc1cccc(C)c1N(C(=O)CCl)[C@@H](C)COC` [α-metolachlor], the “herbicidal action on Cassia sp.” value ([1]; DAA 11, 250 g/ha) was 0%, the “herbicidal action on Cassia sp.” value ([1]; DAA 11, 500 g/ha) was 0% and the “herbicidal action on Cassia sp.” value ([1]; DAA 11, 1000 g/ha) was 0%. The “herbicidal action on Sesbania” value ([11]; DAA 11, 250 g/ha) was 0%, the “herbicidal action on Sesbania” value ([11]; DAA 11, 500 g/ha) was 0% and the “herbicidal action on Sesbania” value ([11]; DAA 11, 1000 g/ha) was 0%.
`CNc1cnn(-c2cccc(C(F)(F)F)c2)c(=O)c1Cl` [norflurazon] was tested, and the “herbicidal action on Abutilon” value ([3]; DAA 27, 250 g/ha) was 60%, the “herbicidal action on Abutilon” value ([3]; DAA 27, 500 g/ha) was 60% and the “herbicidal action on Sesbania” value ([4]; DAA 27, 250 g/ha) was 10%. For the same compound, the “herbicidal action on Sesbania” value ([4]; DAA 27, 500 g/ha) was 30%, the “herbicidal action on Xanthium” value ([2]; DAA 27, 250 g/ha) was 10% and the “herbicidal action on Xanthium” value ([2]; DAA 27, 500 g/ha) was 35%. The “herbicidal action on cotton (damage)” value ([5]; DAA 27, 250 g/ha) was 0% and the “herbicidal action on cotton (damage)” value ([5]; DAA 27, 500 g/ha) was 0%.
For `CSc1nc(NC(C)C)nc(NC(C)C)n1` [prometryn], the “herbicidal action on Sesbania” value ([4]; DAA 15, 250 g/ha) was 10%, the “herbicidal action on Xanthium” value ([2]; DAA 15, 250 g/ha) was 0% and the “herbicidal action on Solanum nigrum” value ([7]; DAA 22, 250 g/ha) was 0%. The “herbicidal action on Solanum nigrum” value ([7]; DAA 22, 500 g/ha) was 0% and the “herbicidal action on Solanum nigrum” value ([7]; DAA 22, 1000 g/ha) was 20%.
With `CN(C)C(=O)Nc1cccc(C(F)(F)F)c1` [fluometuron] the “herbicidal action on Cyperus” value ([6]; titled pre-emergence (under Example B2), DAA 11, 250 g/ha) was 0%, the “herbicidal action on Cyperus” value ([6]; titled pre-emergence (under Example B2), DAA 11, 500 g/ha) was 25% and the “herbicidal action on Cyperus” value ([6]; titled pre-emergence (under Example B2), DAA 11, 1000 g/ha) was 20%.
`CP(=O)(O)CCC(N)C(=O)O` (centres unmarked) [glufosinate] was tested, and the “herbicidal action on Cyperus” value ([6]; post-emergence, DAA 22, 250 g/ha) was 35%, the “herbicidal action on Abutilon” value ([9]; DAA 22, 250 g/ha) was 55% and the “herbicidal action on Digitaria” value ([10]; DAA 22, 250 g/ha) was 75%. The “herbicidal action on Sorghum” value ([13]; DAA 22, 250 g/ha) was 85%.
With `N#Cc1cc(Br)c(O)c(Br)c1` [bromoxynil, bromoxinil] the “herbicidal action on Solanum” value ([12]; DAA 11, 500 g/ha) was 35% and the “herbicidal action on Solanum” value ([12]; DAA 11, 1000 g/ha) was 40%.
With `CCC(CC)Nc1c([N+](=O)[O-])cc(C)c(C)c1[N+](=O)[O-]` [pendimethalin] the “herbicidal action on Xanthium” value ([2]; DAA 15, 250 g/ha) was 0%, the “herbicidal action on Xanthium” value ([2]; DAA 15, 500 g/ha) was 0% and the “herbicidal action on Xanthium” value ([2]; DAA 15, 1000 g/ha) was 0%.
With `CCc1cccc(C)c1N(C(=O)CCl)C(C)COC` (centres unmarked) [metolachlor] the “herbicidal action on Sorghum hal.” value ([8]; DAA 22, 375 g/ha) was 0%, the “herbicidal action on Sorghum hal.” value ([8]; DAA 22, 750 g/ha) was 0% and the “herbicidal action on Sorghum hal.” value ([8]; DAA 22, 1500 g/ha) was 0%.
